Assay results: patent publication US10322110B2, “Imidazole-based antimicrobial agents” (priority 2014, dated 2019)
Values after ≈ are worked out from the molar mass of the structure shown. Where two headings read alike, the source gives them in different places.

How the values were obtained:
Assay type in all cases: cell-based
[1] = system: Human hepatocytes (HepaRG cells); assay: human cytotoxicity assay in vitro (CellTiter-Glo), hepatocytes; conditions: cytotoxicity class
[2] = system: Streptococcus pneumoniae (Chester, ATCC49619); assay: broth microdilution MIC assay, Streptococcus pneumoniae; conditions: MIC100 class score, 24 h
[3] = system: penicillin-, erythromycin- and tetracycline-resistant Streptococcus pneumoniae (ATCC 700677), ARSP; assay: microbe, parasite or virus in culture
[4] = system: Staphylococcus aureus MRSA (COL); assay: broth microdilution MIC assay, Staphylococcus aureus MRSA (COL); conditions: for MIC: Staphylococcus aureus, MRSA
[5] = system: Staphylococcus epidermidis (PCI 1200, ATCC12228); assay: broth microdilution MIC assay, Staphylococcus epidermidis; conditions: ATCC12228, read-out: Antibacterial activity SE (Staphylococcus epidermidis)
[6] = system: Staphylococcus aureus MSSA (Newman); assay: broth microdilution MIC assay, Staphylococcus aureus MSSA (Newman); conditions: for Antibacterial activity Staphylococcus aureus (MSSA): MIC100 class score, broth microdilution; for MIC: Staphylococcus aureus
[7] = system: Bacillus subtilis (Marburg strain, ATCC6051); assay: microbe, parasite or virus in culture; conditions: ATCC6051, read-out: Antibacterial activity BS (Bacillus substilis)
[8] = ATCC700677, read-out: Antibacterial activity ARSP (multi-drug resistant-SP)
[9] = read-out: Antibacterial activity MRSA (Staphylococcus aureus MRSA)
[10] = read-out: Antibacterial activity MSSA (Staphylococcus aureus MSSA)
[11] = MIC100 class score, broth microdilution, 24 h
[12] = 24 h, read-out: Antibacterial activity Staphylococcus aureus (MRSA)
[13] = 24 h, read-out: Antibacterial activity Staphylococcus aureus (MSSA)
[14] = ATCC700677, MIC activity class, read-out: Antibacterial activity ARSP (multi-drug resistant-SP)

SMILES | cytotoxicity cell line H (hepatocytes) [1] | Antibacterial activity Streptococcus pneumoniae [2] | MIC [4, 9] | MIC [5] | Antibacterial activity Staphylococcus aureus (MSSA) ([6]; 24 h) | MIC [6, 10] | also measured
Cc1[nH]c(-c2cc(C)n(-c3ccc4c(c3)CCC4)c2C)nc1-c1ccccc1 [Compound 59] | 2 | 3 (MIC100 of 2-5 μg/ml) | – | – | – | – | –
Cc1[nH]c(-c2ccc(-c3ccccc3OC(F)(F)F)o2)nc1-c1ccc(C(F)(F)F)cc1 [Compound 26] | – | 3 (MIC100 of 2-5 μg/ml) | – | – | – | – | MIC [3, 8]: 6 to 10 µg/mL (≈ 13.3 to 22.1 µM)
Cc1[nH]c(-c2ccn(-c3ccccc3C(F)(F)F)c2)nc1-c1ccccc1 [Compound 33] | – | 2 (MIC100 of 6-10 μg/ml) | 20 to 50 µg/mL (≈ 54.4 to 136 µM) | 11 to 201 µg/mL (≈ 29.9 to 547 µM) | 3 (MIC100 of 3-10 μg/ml) | 3 to 10 µg/mL (≈ 8.17 to 27.2 µM) | –
FC(F)(F)Oc1ccccc1-c1ccc(-c2ncc(-c3ccccc3)[nH]2)o1 [Compound 63] | 2 | 3 (MIC100 of 2-5 μg/ml) | 3 to 10 µg/mL (≈ 8.1 to 27 µM) | 3 to 10 µg/mL (≈ 8.1 to 27 µM) | 3 (MIC100 of 3-10 μg/ml) | 3 to 10 µg/mL (≈ 8.1 to 27 µM) | –
Cc1[nH]c(-c2ccc(-c3ccc(C(F)(F)F)c(Cl)c3)o2)nc1-c1ccc(F)cc1 [Compound 49] | 3 | 3 (MIC100 of 2-5 μg/ml) | 3 to 10 µg/mL (≈ 7.13 to 23.8 µM) | 11 to 201 µg/mL (≈ 26.1 to 478 µM) | 3 (MIC100 of 3-10 μg/ml) | 3 to 10 µg/mL (≈ 7.13 to 23.8 µM) | MIC [3, 8]: < 1 µg/mL; Antibacterial activity Staphylococcus aureus (MRSA) [4, 11]: 2 (MIC100 of 11-201 μg/ml)
Cc1[nH]c(-c2ccc(-c3ccccc3C(F)(F)F)o2)nc1-c1ccc(Br)cc1 [Compound 25] | – | 3 (MIC100 of 2-5 μg/ml) | – | – | – | – | MIC [7]: 20 to 50 µg/mL (≈ 44.7 to 112 µM)
Cc1[nH]c(-c2cc(C)n(-c3ccc(F)c(F)c3F)c2C)nc1-c1ccccc1 [Compound 10] | 3 | 2 (MIC100 of 6-10 μg/ml) | – | – | – | – | –
Cc1nc(-c2ccc(-c3ccccc3OC(F)(F)F)o2)[nH]c1-c1ccc(Br)cc1 [Compound 29] | – | 3 (MIC100 of 2-5 μg/ml) | 11 to 201 µg/mL (≈ 23.7 to 434 µM) | – | 3 (MIC100 of 3-10 μg/ml) | 3 to 10 µg/mL (≈ 6.48 to 21.6 µM) | Antibacterial activity Staphylococcus aureus (MRSA) [4, 11]: 2 (MIC100 of 11-201 μg/ml)
Cc1nc(-c2ccc(-c3ccc(F)cc3F)o2)[nH]c1-c1ccc(O)cc1 [Compound 80] | – | 3 (MIC100 of 2-5 μg/ml) | – | – | 3 (MIC100 of 3-10 μg/ml) | – | Antibacterial activity Staphylococcus aureus (MRSA) [4, 11]: 2 (MIC100 of 11-201 μg/ml)
FC(F)(F)c1ccccc1-c1ccc(-c2nc(Cl)c(-c3ccccc3)[nH]2)o1 [Compound 65] | 2 | – | – | – | 2 (MIC100 of 11-201 μg/ml) | 11 to 201 µg/mL (≈ 28.3 to 517 µM) | –
Cc1nc(-c2ccc(-c3cccc(Cl)c3)o2)[nH]c1-c1ccccc1 [Compound 4] | – | – | 11 to 201 µg/mL (≈ 32.9 to 600 µM) | 3 to 10 µg/mL (≈ 8.96 to 29.9 µM) | – | 1 to 3 µg/mL (≈ 2.99 to 8.96 µM) | MIC [4, 12]: 11 to 201 µg/mL (≈ 32.9 to 600 µM); MIC [6, 13]: 1 to 3 µg/mL (≈ 2.99 to 8.96 µM)
Cc1[nH]c(-c2ccc(-c3cc(C(F)(F)F)ccc3Cl)o2)nc1-c1ccccc1 [Compound 40] | 2 | – | – | – | – | – | –
Cc1[nH]c(-c2ccc(-c3ccc(Cl)c(C(F)(F)F)c3)o2)nc1-c1ccc(F)cc1 [Compound 42] | – | – | – | 3 to 10 µg/mL (≈ 7.13 to 23.8 µM) | – | 1 to 3 µg/mL (≈ 2.38 to 7.13 µM) | MIC [3, 14]: < 1 µg/mL; MIC [7]: 1 to 3 µg/mL (≈ 2.38 to 7.13 µM)
Cc1nc(-c2ccc(-c3ccccc3N(C)C)o2)[nH]c1-c1ccccc1 [Compound 71] | 3 | – | – | – | – | – | –
Cc1[nH]c(-c2ccc(-c3ccc(C(F)(F)F)cc3)o2)nc1-c1ccccc1 [Compound 45] | – | – | 11 to 201 µg/mL (≈ 29.9 to 546 µM) | 3 to 10 µg/mL (≈ 8.14 to 27.1 µM) | – | 3 to 10 µg/mL (≈ 8.14 to 27.1 µM) | MIC [3, 14]: 2 to 5 µg/mL (≈ 5.43 to 13.6 µM); MIC [7]: 3 to 10 µg/mL (≈ 8.14 to 27.1 µM); MIC ([4]; MIC100 class score, broth microdilution, 24 h, read-out: Antibacterial activity Staphylococcus aureus (MRSA)): 3 to 10 µg/mL (≈ 8.14 to 27.1 µM); MIC [6, 13]: 3 to 10 µg/mL (≈ 8.14 to 27.1 µM)
Cc1ccccc1-c1ccc(-c2nc(-c3ccccc3)c(C)[nH]2)o1 [Compound 61] | 3 | – | – | – | – | – | –
CCc1ccc(-c2[nH]c(-c3ccc(-c4ccccc4C(F)(F)F)o3)nc2C)cc1 [Compound 28] | – | 3 (MIC100 of 2-5 μg/ml) | 20 to 50 µg/mL (≈ 50.5 to 126 µM) | – | – | 20 to 50 µg/mL (≈ 50.5 to 126 µM) | MIC [7]: 1 to 3 µg/mL (≈ 2.52 to 7.57 µM)
Cc1nc(-c2ccc(-c3ccc(Cl)cc3C(F)(F)F)o2)[nH]c1-c1ccccc1 [Compound 32] | 2 | – | 3 to 10 µg/mL (≈ 7.45 to 24.8 µM) | 3 to 10 µg/mL (≈ 7.45 to 24.8 µM) | – | 1 to 3 µg/mL (≈ 2.48 to 7.45 µM) | MIC [4, 12]: 3 to 10 µg/mL (≈ 7.45 to 24.8 µM); MIC [6, 13]: 1 to 3 µg/mL (≈ 2.48 to 7.45 µM)
Cc1nc(-c2ccc(-c3ccc(Cl)cc3)o2)[nH]c1-c1ccccc1 [Compound 5] | 2 | – | 3 to 10 µg/mL (≈ 8.96 to 29.9 µM) | 3 to 10 µg/mL (≈ 8.96 to 29.9 µM) | – | 1 to 3 µg/mL (≈ 2.99 to 8.96 µM) | MIC [4, 12]: 3 to 10 µg/mL (≈ 8.96 to 29.9 µM); MIC [6, 13]: 1 to 3 µg/mL (≈ 2.99 to 8.96 µM)
